Data taken from ChEMBL document CHEMBL1139938, “Syntheses and antibacterial activity of phendioxy substituted cyclic enediynes” (2007).
Converted amounts (≈) assume the structure as drawn. The source made the active and inactive calls. The calls are words filed in the database; no cut-off is given here.

Tests used:
[1] = test system: Escherichia coli; assay: Antibacterial activity against Escherichia coli ATCC 25668; format: functional
[2] = test system: Salmonella typhimurium; assay: Antibacterial activity against Salmonella Typhimurium isolate; format: functional, Salmonella enterica subsp. enterica serovar Typhimurium; conditions: Salmonella enterica
[3] = test system: Pseudomonas aeruginosa; assay: Antibacterial activity against Pseudomonas aeruginosa ATCC 11775 upto 512 ug/mL; format: functional, organism-based
[4] = test system: Staphylococcus aureus; assay: Antibacterial activity against Staphylococcus aureus isolate upto 512 ug/mL; format: functional, organism-based
[5] = test system: Staphylococcus aureus; assay: Antibacterial activity against Staphylococcus aureus isolate; format: functional
[6] = test system: Pseudomonas aeruginosa; assay: Antibacterial activity against Pseudomonas aeruginosa ATCC 11775; format: functional
[7] = test system: Salmonella typhimurium; assay: Antibacterial activity against Salmonella Typhimurium isolate upto 512 ug/mL; format: functional, organism-based; conditions: Salmonella enterica subsp. enterica serovar Typhimurium
[8] = test system: Escherichia coli; assay: Antibacterial activity against Escherichia coli ATCC 25668 upto 512 ug/mL; format: functional, organism-based

MIC [1]	MIC [2]	MIC [5]	MIC [6]	Compound	Activity [3]	Activity [4]	Activity [7]	Activity [8]
256 µg/mL (≈ 782 µM)	128 µg/mL (≈ 391 µM)			Cc1ccc(/N=C/c2ccc3cc2OCC#C/C=C\C#CCO3)cc1	inactive	inactive		
8 µg/mL (≈ 33.3 µM)	128 µg/mL (≈ 533 µM)	4 µg/mL (≈ 16.6 µM)		OCc1ccc2cc1OCC#C/C=C\C#CCO2	inactive			
4 µg/mL (≈ 19 µM)	8 µg/mL (≈ 38.1 µM)			C1#CCOc2cccc(c2)OCC#C/C=C\1	inactive	inactive		
4 µg/mL (≈ 12.7 µM)	16 µg/mL (≈ 50.7 µM)	8 µg/mL (≈ 25.4 µM)	16 µg/mL (≈ 50.7 µM)	C1#CCOc2ccc(CNc3ccccc3)c(c2)OCC#C/C=C\1				
128 µg/mL (≈ 408 µM)	64 µg/mL (≈ 204 µM)	128 µg/mL (≈ 408 µM)	128 µg/mL (≈ 408 µM)	C1#CCOc2ccc(/C=N/c3ccccc3)c(c2)OCC#C/C=C\1				
64 µg/mL (≈ 183 µM)	512 µg/mL (≈ 1460 µM)			Clc1ccc(NCc2ccc3cc2OCC#C/C=C\C#CCO3)cc1	inactive	inactive		
> 1000 µg/mL	> 1000 µg/mL	> 1000 µg/mL	> 1000 µg/mL	C#CCOc1cccc(OCC#C)c1				
> 1000 µg/mL	> 1000 µg/mL	> 1000 µg/mL	> 1000 µg/mL	C#CCOc1ccc(C=O)c(OCC#C)c1				
256 µg/mL (≈ 1070 µM)	128 µg/mL (≈ 537 µM)	8 µg/mL (≈ 33.6 µM)		O=Cc1ccc2cc1OCC#C/C=C\C#CCO2	inactive			
4 µg/mL (≈ 12.1 µM)	128 µg/mL (≈ 389 µM)	16 µg/mL (≈ 48.6 µM)	32 µg/mL (≈ 97.1 µM)	Cc1ccc(NCc2ccc3cc2OCC#C/C=C\C#CCO3)cc1				
	128 µg/mL (≈ 326 µM)			Brc1ccc(/N=C/c2ccc3cc2OCC#C/C=C\C#CCO3)cc1	inactive	inactive		inactive

Compound	MIC [1]	MIC [2]	MIC [5]	MIC [6]	Activity [3]	Activity [4]	Activity [7]	Activity [8]
CN(C)[C@@H]1C(O)=C(C(N)=O)C(=O)[C@@]2(O)C(O)=C3C(=O)c4c(O)cccc4[C@@](C)(O)[C@H]3C[C@@H]12 [TETRACYCLINE]	2 µg/mL (≈ 4.5 µM)	0.5 µg/mL (≈ 1.13 µM)	2 µg/mL (≈ 4.5 µM)	1 µg/mL (≈ 2.25 µM)				
Brc1ccc(NCc2ccc3cc2OCC#C/C=C\C#CCO3)cc1	128 µg/mL (≈ 325 µM)				inactive	inactive	inactive	
